Experimental data taken from US20030162762A1, “Novel cephalosporin compounds and process for preparing the same” (priority 2000, published 2003).
≈ marks a conversion by molar mass, not a printed value. Read-outs that look alike come from different tables or passages of the source.

Experiments:
Test in all cases: Minimum Inhibitory Concentration (MIC), agar dilution, standard strains
[1] = test system: S. aureus 77; format: cell-based, Staphylococcus aureus; conditions: Mueller-Hinton agar, 37° C., 20 hours; for MIC: Staphylococcus aureus, 77, read-out: Minimum Inhibitory Concentration, S. aureus 77
Description: (§1) The effectiveness of the compound according to the present invention was determined by obtaining Minimum Inhibitory Concentration (MIC) of the compounds prepared by the above examples (Compounds I-1 to I-41) and vancomycin, which is the known compound having a potent activity against gram-positive strains, as the control drug against the standard strains. Specifically, Minimum Inhibitory Concentration was obtained by diluting the test compound according to a double dilution method, dispersing them in Mueller-Hinton agar medium, inoculating each of the test strain having 10^7 cfu (colony forming unit) per ml in an amount of 2 μl to the medium and then incubating them at 37° C. for 20 hours. From the result of Minimum Inhibitory Concentration test, it can be seen that the compound according to the present invention has a good activity against major pathogenic microorganisms, which cause hospital infection, including MRSA strains.

[2] = test system: S. aureus K311; format: cell-based, Staphylococcus aureus; conditions: Staphylococcus aureus, K311; Table 2; Mueller-Hinton agar, 37° C., 20 hours; read-out: Minimum Inhibitory Concentration, S. aureus K311
Description: as §1

[3] = test system: S. epidermidis R005; format: cell-based; conditions: Mueller-Hinton agar, 37° C., 20 hours; for MIC: Staphylococcus epidermidis, R005, read-out: Minimum Inhibitory Concentration, S. epidermidis R005
Description: as §1

[4] = test system: E. faecalis EFS004; format: cell-based; conditions: Enterococcus faecalis, EFS004; Table 2; Mueller-Hinton agar, 37° C., 20 hours; read-out: Minimum Inhibitory Concentration, E. faecalis EFS004
Description: as §1

[5] = test system: Staphylococcus aureus giorgio; format: cell-based; conditions: Mueller-Hinton agar, 37° C., 20 hours; for MIC: Staphylococcus aureus, read-out: Minimum Inhibitory Concentration, Staphylococcus aureus giorgio
Description: as §1

[6] = test system: S. aureus 241; format: cell-based, Staphylococcus aureus; conditions: Table 1, Mueller-Hinton agar, 37° C., 20 hours; for MIC: Staphylococcus aureus, 241, read-out: Minimum Inhibitory Concentration, S. aureus 241
Description: as §1

[7] = test system: E. faecalis L239; format: cell-based; conditions: Table 1, Mueller-Hinton agar, 37° C., 20 hours; for MIC: Enterococcus faecalis, L239, read-out: Minimum Inhibitory Concentration, E. faecalis L239
Description: as §1

Compound | Minimum Inhibitory Concentration, S. aureus 77 ([1]; Table 1) [µg/mL] | Minimum Inhibitory Concentration, S. aureus 241 [6] [µg/mL] | Minimum Inhibitory Concentration, S. epidermidis R005 ([3]; Table 1) [µg/mL] | Minimum Inhibitory Concentration, E. faecalis L239 [7] [µg/mL] | Minimum Inhibitory Concentration, Staphylococcus aureus giorgio ([5]; Table 1) [µg/mL] | other results
Nc1nc(O)cc(SC/C=C/C2=C(C(=O)O)N3C(=O)[C@@H](NC(=O)CSc4cc(Cl)nc(Cl)c4)[C@H]3SC2)n1 [Compound I-10, (6R,7R)-3-{(E)-3-[(2-amino-6-hydroxy-4-pyrimidinyl)sulfanyl]-1-propenyl}-7-({2-[(2,6-dichloro-4-pyridinyl)sulfanyl]acetyl}amino)-8-oxo-5-thia-1-azabicyclo [4.2.0]oct-2-ene-2-carboxylic acid] | – | – | – | – | – | MIC ([1]; Table 2): 0.25 µg/mL (≈ 0.416 µM); MIC [2]: 0.5 µg/mL (≈ 0.831 µM); MIC ([3]; Table 2): 0.25 µg/mL (≈ 0.416 µM); MIC [4]: 1 µg/mL (≈ 1.66 µM); MIC ([5]; Table 2): 0.016 µg/mL (≈ 0.0266 µM)
4-amino-1-{(E)-3-[(6R,7R)-2-carboxy-7-({2-[(2,5-dichlorophenyl)sulfanyl]acetyl}amino)-8-oxo-5-thia-1-azabicyclo[4.2.0]oct-2-en-3-yl]-2-propenyl}-2-methyl pyrimidin-1-ium [Compound I-39] | 0.25 | 2 | 0.063 | 0.5 | <0.008 | –
4,6-diamino-1-{(E)-3-[(6R,7R)-2-carboxy-7-({2-[(2,5-dichlorophenyl)sulfanyl]acetyl}amino)-8-oxo-5-thia-1-azabicyclo[4.2.0]oct-2-en-3-yl]-2-propenyl}-5-methylpyrimidin-1-ium [Compound I-40] | 1 | 8 | 0.25 | 2 | 0.016 | –
Nc1nc[n+](C/C=C/C2=C(C(=O)O)N3C(=O)[C@@H](NC(=O)CSc4cc(Cl)ccc4Cl)[C@H]3SC2)c2c1CCC2 [Compound I-34] | 0.5 | 4 | 0.13 | 1 | <0.008 | –
C[n+]1c(N)cc(SC/C=C/C2=C(C(=O)O)N3C(=O)[C@@H](NC(=O)CSc4cc(Cl)ccc4Cl)[C@H]3SC2)nc1N [Compound I-22, (6R,7R)-2,6-diamino-4-({(E)-3-[2-carboxy-7-({2-[(2,5-dichlorophenyl)sulfanyl]acetyl}amino)-8-oxo-5-thia-1-azabicyclo[4.2.0]oct-2-en-3-yl]-2-propenyl}sulfanyl)-1-methylpyrimidin-1-ium] | 0.063 | 1 | 0.063 | 0.25 | <0.008 | –
Nc1nc[n+](C/C=C/C2=C(C(=O)O)N3C(=O)[C@@H](NC(=O)CSc4cc(Cl)ccc4Cl)[C@H]3SC2)c(N)c1N [Compound I-35] | 0.25 | 2 | 0.25 | 0.5 | 0.016 | –
CNc1cc(N)nc(C)[n+]1C/C=C/C1=C(C(=O)O)N2C(=O)[C@@H](NC(=O)CSc3cc(Cl)ccc3Cl)[C@H]2SC1 [Compound I-38, 4-amino-1-{(E)-3-[(6R,7R)-2-carboxy-7-({2-[(2,5-dichlorophenyl)sulfanyl]acetyl}amino)-8-oxo-5-thia-1-azabicyclo[4.2.0]oct-2-en-3-yl]-2-propenyl}-2-methyl-6-(methylamino)pyrimidin-1-ium] | 1 | 8 | 0.5 | 1 | 0.031 | –
Nc1nc(SC/C=C/C2=C(C(=O)O)N3C(=O)[C@@H](NC(=O)CSc4cc(Cl)ccc4Cl)[C@H]3SC2)nc2c1CCC2 [Compound I-20, (6R,7R)-3-{(E)-3-[(4-amino-6,7-dihydro-5H-cyclopenta[d]pyrimidin-2-yl)sulfanyl]-1-propenyl}-7-({2-[(2,5-dichlorophenyl)sulfanyl]acetyl}amino)-8-oxo-5-thia-1-azabicyclo[4.2.0]oct-2-ene-2-carboxylic acid] | – | – | – | – | – | MIC ([1]; Table 1): 2 µg/mL (≈ 3.2 µM); MIC [6]: 32 µg/mL (≈ 51.2 µM); MIC ([3]; Table 1): 2 µg/mL (≈ 3.2 µM); MIC [7]: 2 µg/mL (≈ 3.2 µM); MIC ([5]; Table 1): 0.063 µg/mL (≈ 0.101 µM)
Nc1nc(O)cc(SC/C=C/C2=C(C(=O)O)N3C(=O)[C@@H](NC(=O)CSc4cc(Cl)ccc4Cl)[C@H]3SC2)n1 [Compound I-1, (6R,7R)-3-{(E)-3-[(2-amino-6-hydroxy-4-pyrimidinyl)sulfanyl]-1-propenyl}-7-({2-[(2,5-dichlorophenyl)sulfanyl]acetyl}amino)-8-oxo-5-thia-1-azabicyclo[4.2.0]oct-2-ene-2-carboxylic acid] | – | – | – | – | – | MIC ([1]; Table 1): 0.25 µg/mL (≈ 0.416 µM); MIC [6]: 4 µg/mL (≈ 6.66 µM); MIC ([3]; Table 1): 0.13 µg/mL (≈ 0.216 µM); MIC [7]: 0.25 µg/mL (≈ 0.416 µM); MIC ([5]; Table 1): < 0.008 µg/mL
CNCc1c(N)nc(SC/C=C/C2=C(C(=O)O)N3C(=O)[C@@H](NC(=O)CSc4cc(Cl)ccc4Cl)[C@H]3SC2)[n+](C)c1N [Compound I-23, (6R,7R)-4,6-diamino-2-({(E)-3-[2-carboxy-7-({2-[(2,5-dichlorophenyl)sulfanyl]acetyl}amino)-8-oxo-5-thia-1-azabicyclo[4.2.0]oct-2-en-3-yl]-2-propenyl}sulfanyl)-1-methyl-5-[(methylamino)methyl]pyrimidin-1-ium] | 0.25 | 4 | 0.25 | 1 | 0.016 | –
Cc1c(N)nc(SC/C=C/C2=C(C(=O)O)N3C(=O)[C@@H](NC(=O)CSc4cc(Cl)ccc4Cl)[C@H]3SC2)nc1N [Compound I-26, (6R,7R)-3-{(E)-3-[(4,6-diamino-5-methyl-2-pyrimidinyl)sulfanyl]-1-propenyl}-7-({2-[(2,5-dichlorophenyl)sulfanyl]acetyl}amino)-8-oxo-5-thia-1-azabicyclo[4.2.0]oct-2-ene-2-carboxylic acid] | – | – | – | – | – | MIC ([1]; Table 1): 1 µg/mL (≈ 1.63 µM); MIC [6]: 16 µg/mL (≈ 26.1 µM); MIC ([3]; Table 1): 2 µg/mL (≈ 3.26 µM); MIC [7]: 2 µg/mL (≈ 3.26 µM); MIC ([5]; Table 1): 0.13 µg/mL (≈ 0.212 µM)
Nc1cc[n+](N)c(SCC2=C(C(=O)O)N3C(=O)[C@@H](NC(=O)CSc4cc(Cl)ccc4Cl)[C@H]3SC2)n1 [Compound I-6, 1,4-diamino-2-({[(6R,7R)-2-carboxy-7-({2-[(2,5-dichlorophenyl)sulfanyl]acetyl}amino)-8-oxo-5-thia-1-azabicyclo[4.2.0]oct-2-en-3-yl]methyl}sulfanyl)pyrimidin-1-ium] | 0.031 | 4 | 0.063 | 4 | <0.008 | –
Nc1nc(SC/C=C/C2=C(C(=O)O)N3C(=O)[C@@H](NC(=O)CSc4cc(Cl)ccc4Cl)[C@H]3SC2)c2c([n+]1N)CCC2 [Compound I-21] | 0.063 | 1 | 0.063 | 0.25 | <0.008 | –
Nc1cc[n+](N)c(SC/C=C/C2=C(C(=O)O)N3C(=O)[C@@H](NC(=O)CSc4cc(Cl)ccc4Cl)[C@H]3SC2)n1 [Compound I-4, 1,4-diamino-2-({(E)-3-[(6R,7R)-2-carboxy-7-({2-[(2,5-dichlorophenyl)sulfanyl]acetyl}amino)-8-oxo-5-thia-1-azabicyclo[4.2.0]oct-2-en-3-yl]-2-propenyl}sulfanyl) pyrimidin-1-ium] | 0.13 | 1 | 0.13 | 0.5 | <0.008 | –
